{
  "source": "patent US10717727B2",
  "about": "“Pyridinium compounds” (TORRENT PHARMACEUTICALS LIMITED, priority 2015, dated 2020)",
  "system": "Diabetic rats",
  "experiment": "In vivo study of effect on Nerve Conduction Velocity (NCV) in streptozotocin-induced diabetic rats",
  "conditions": "150 mg/kg, 8 weeks of treatment after 12 weeks of diabetes, streptozotocin diabetic male Wistar rats; compared with diabetic control rats treated with vehicle; ***p<0.001 by student's t-test (FIG. 1)",
  "procedure": "Motor nerve conduction velocity evaluation was performed as a measure of AGE related diabetic complications.\nIn vivo study to evaluate effect of compound of present invention on Nerve Conduction Velocity\nHealthy male Wistar rats, 170-250 g, 6-10 weeks old, were selected for the study. The animals were divided into two groups i.e. a non-diabetic control group (Normal Control Rats) and a diabetic group. Diabetes was induced (in the diabetic group of animals) by a single intraperitoneal injection of streptozotocin (60 mg/kg body weight) dissolved in citrate buffer (pH 4.5) (Biro et al; Brain Research Bulletin (1997) 44(3): 259-263). […]\n150 mg/kg of Compound No 1 was administered to diabetic rats and diabetic control group was treated with vehicle for Compound 1. The rats were monitored throughout the experiment for water intake, food intake, changes in body weight, blood biochemistry parameters, urine parameters and mortality. […]\nAfter 8 weeks of treatment NCV was estimated as described by Biro et al, (1997). […] Electromyograms (EMG's) from the plantar muscles were amplified and recorded using a data acquisition system (MacLab®, ADI instruments). […] Latency and the duration of the M responses were measured and the motor nerve conduction velocity (MNCV) was calculated. […]\nAnode was placed in proximity to the cathode. Upon stimulation of the nerve, responses (EMG) were recorded from the plantar surface. […]",
  "data": [
    {"compound": "CS(=O)(=O)NNC(=O)c1ccc[n+](CC(=O)c2cccs2)c1", "note": "[Compound 1]", "values": [
      {"measurement": "Nerve Conduction Velocity (NCV)", "value": "improvement in NCV"}
    ]}
  ]
}
